Assay results as given in publication PMC8269107, “Lipidation of Temporin-1CEb Derivatives as a Tool for Activity Improvement, Pros and Cons of the Approach” (International Journal of Molecular Sciences, 2021).
Where a SMILES comes first, the peptide text is derived from it. The star is where a group is joined. Lauroyl = CCCCCCCCCCCC(=O)*

Test system: S. aureus
Experiment: LIVE/DEAD BacLight bacterial viability
Type: cell-based, Staphylococcus aureus
Details: 0.39-25 µg/mL, 3 and 6 h of co-incubation
Procedure: Evaluation of the bacterial viability in the presence or absence of the tested compounds was performed according to the protocols developed for the laboratory kit LIVE/DEAD ®® BacLight TM Bacterial Viability Kits (Molecular Probes Europe BV, Amsterdam, The Netherlands). Briefly, late log phase cultures of E. coli and S. aureus in Luria-Bertani broth were harvested by centrifugation at 4000× g, the supernatant was removed, and pellets were resuspended in sterile water solution of 0.85% NaCl. Again, bacterial cells were centrifuged under the same conditions. In order to remove traces of growth, the medium washing step was repeated twice. At the end, pellets were resuspended in a fresh sterile 0.85% NaCl solution and diluted, yielding suspensions of E. coli, containing about 2 × 10^8 CFU/mL, and S. aureus with about 2 × 10^7 CFU/mL. Subsequently, 90 µL of bacterial suspensions (E. coli or S. aureus, respectively) were transferred to 96-well microtiter plates and 10 µL of the tested peptides were added to final concentrations ranging from 0.39 µg/mL to 25 µg/mL. […] Fluorescence was read with excitation wavelength set at 485 nm and emission wavelengths set at 530 nm (for green dye) and 630 nm (red dye) by means of CLARIOstar®® plate reader (BMG LABTECH, Germany).

CCCCCCCCCCCC(=O)N[C@H](C(=O)N[C@@H](CCCCN)C(=O)N[C@@H](CCCCN)C(=O)N[C@H](C(=O)N[C@@H](CC(C)C)C(=O)N[C@@H](CO)C(=O)N[C@@H](CCCCN)C(=O)N[C@H](C(=O)N[C@@H](CCCCN)C(=O)N[C@@H](CCCCN)C(=O)N[C@@H](CC(C)C)C(=O)N[C@@H](CC(C)C)C(N)=O)[C@@H](C)CC)[C@@H](C)CC)[C@@H](C)CC [Compound C12-DK5] (Lauroyl-IKKILSKIKKLL-NH2)
relative viability of S. aureus (live/dead): most active
